# Experimental data taken from US12157730B2, “Heteroaryl derivative, method for producing same, and pharmaceutical composition comprising same as effective component” (VORONOI INC., priority 2019, dated 2024).
# Target: T1, Ba/F3 cell EGFR Exon20 ins NPH (Homo sapiens, UniProt P00533, INS773NPH)
# T1 construct: expressed in transfected cells; host or cells: Ba/F3
# Test: Ba/F3 cell proliferation suppression, EGFR Exon20 ins NPH
# Assay type: cell-based
# Settings: GI50 class; Ba/F3 cell line with NPH inserted at Exon20 of EGFR; 72 hours
# Method: The following experiment was carried out to evaluate the suppression activity of the compounds according to the present invention against proliferation of Ba/F3 and lung cancer cells which express EGFR mutations.
# Of the cancer cell lines expressing the EGFR gene, A549 was cultured after adding 10% FBS (HyClone) to DMEM (Invitrogen), and RPMI-1640 (Invitrogen) with 10% FBS was used for the other cancer cells. For the Ba/F3 cells, RPMI-1640 with 10% FBS and 5 ng/ml IL-3 (R&D Systems) was used. The transduced Ba/F3 cells were cultured by adding 1 ug/ml puromycin (Invitrogen) to the same medium.
# 24 hours before treatment with the compounds, 3000 to 5000 cells were distributed into each well of a white clear bottom 96 well plate (Corning). The compounds were diluted in dimethylsulfoxide (dilution ratio 3:1; 12 concentrations total) and injected 0.5 ul each for a final concentration of 0.3 nM to 50 um. As for measurement of live cells, 72 hours after treatment with the compounds, a CellTiter-Glo luminescent cell-viability reagent (Promega) was used to store the cells at room temperature for 10 minutes, followed by measurement of luminescence using a reader (SynergyNeo, Biotek). Each test was repeated three times.
# The result was calculated as a cell growth ratio (%) compared to a control. The program GraphPad Prism version 5.0 was used to draw the graphs and calculate the GI50 values.
row,Structure (SMILES),Ba/F3 (NPH) Activity
1,"C=CC(=O)Nc1cc(Nc2cc(N3OCC[C@@H]3c3cccc(Cl)c3F)ncn2)c(OC)cc1N1CCC(N2C[C@H](C)N(C3CC3)C[C@@H]2C)CC1 [Example 128, N-(5-((6-((R)-3-(3-chloro-2-fluorophenyl)isoxazolidine-2-yl)pyrimidine-4-yl)amino)-2-(4-((2S,5S)-4-cyclopropyl-2,5-dimethylpiperazine-1-yl)piperidine-1-yl)-4-methoxyphenyl) acrylamide]",A (GI50 < 50 nM)
2,"C=CC(=O)Nc1cc(Nc2cc(N3OCC[C@@H]3c3ccc(Cl)cc3F)ncn2)c(OC)cc1N1CCC(N2C[C@H]3C[C@@H]2CO3)CC1 [compound 548, N-(2-(4-((1R,4R)-2-oxa-5-azabicyclo[2.2.1]heptane-5-yl)piperidine-1-yl)-5-((6-((R)-3-(4-chloro-2-fluorophenyl)isoxazolidine-2-yl)pyrimidine-4-yl)amino)-4-methoxyphenyl) acrylamide]",A (GI50 < 50 nM)
3,"C=CC(=O)Nc1cc(Nc2cc(N3OCC[C@@H]3c3cccc(Cl)c3F)ncn2)c(OC)cc1N1CCC(N2CCN(C3CC3)[C@@H](C)C2)CC1 [Example 179, N-(5-((6-((R)-3-(3-chloro-2-fluorophenyl)isoxazolidine-2-yl)pyrimidine-4-yl)amino)-2-(4-((S)-4-cyclopropyl-3-methylpiperazine-1-yl)piperidine-1-yl)-4-methoxyphenyl) acrylamide]",A (GI50 < 50 nM)
4,C=CC(=O)Nc1cc(Nc2cc(N3OCC[C@H]3c3cc(F)cc(F)c3)ncn2)c(OC)cc1N1CCC(N2CCN(C3CC3)CC2)CC1 [Example 118],C (500 nM ≤ GI50 < 5000 nM)
5,"C=CC(=O)Nc1cc(Nc2cc(N3OCC[C@@H]3c3ccc(C)nc3)ncn2)c(OC)cc1N1CCC(N2CCN(CC)CC2)CC1 [Example 41, N-(2-(4-(4-ethylpiperazine-1-yl)piperidine-1-yl)-4-methoxy-5-((6((R)-3-(6-methylpyridine-3-yl)isoxazolidine-2-yl)pyrimidine-4-yl)amino)phenyl) acrylamide]",B (50 nM ≤ GI50 < 500 nM)
6,"C=CC(=O)Nc1cc(Nc2cc(N3OCC[C@@H]3c3ccc(Cl)cc3)ncn2)c(OC)cc1N1CCC(N(C)C)CC1 [compound 805, N-(5-((6-((R)-3-(4-chlorophenyl)isoxazolidine-2-yl)pyrimidine-4-yl)amino)-2-(4-(dimethylamino)piperidine-1-yl)-4-methoxyphenyl) acrylamide]",A (GI50 < 50 nM)
7,"C=CC(=O)Nc1cc(Nc2cc(N3OCC[C@@H]3c3cccc(F)c3Cl)ncn2)c(OC)cc1N1CCC(N2C[C@@H]3C[C@H]2CO3)CC1 [compound 640, N-(2-(4-((1S,4S)-2-oxa-5-azabicyclo[2.2.1]heptane-5-yl)piperidine-1-yl)-5-((6-((R)-3-(2-chloro-3-fluorophenyl)isoxazolidine-2-yl)pyrimidine-4-yl)amino)-4-methoxyphenyl) acrylamide]",A (GI50 < 50 nM)
8,"C=CC(=O)Nc1cc(Nc2cc(N3OCC[C@@H]3c3ccc(Cl)c(F)c3)ncn2)c(OC)cc1N1CCN(C(C)=O)CC1 [compound 363, N-(2-(4-acetylpiperazine-1-yl)-5-((6-((R)-3-(4-chloro-3-fluorophenyl)isoxazolidine-2-yl)pyrimidine-4-yl)amino)-4-methoxyphenyl) acrylamide]",A (GI50 < 50 nM)
9,"C=CC(=O)Nc1cc(Nc2cc(N3OCC[C@@H]3c3cccc(C(F)(F)F)c3)ncn2)c(OC)cc1N1CC[C@@H](N2CCOCC2)C1 [compound 506, N-(4-methoxy-2-((R)-3-morpholinopyrolidine-1-yl)-5-((6-((R)-3-(3-(trifluoromethyl)phenyl)isoxazolidine-2-yl)pyrimidine-4-yl)amino)phenyl)acrylamide]",A (GI50 < 50 nM)
10,"C=CC(=O)Nc1cc(Nc2cc(N3OCC[C@@H]3Cc3cccc(N(C)C)c3)ncn2)c(OC)cc1N1CCC(N2C[C@H]3C[C@@H]2CO3)CC1 [compound 1047, N-(2-(4-((1R,4R)-2-oxa-5-azabicyclo [2.2.1]heptane-5-yl)piperidine-1-yl)-5-((6-((S)-3-(3-(dimethylamino)benzyl)isoxazolidine-2-yl)pyrimidine-4-yl)amino)-4-methoxyphenyl) acrylamide]",B (50 nM ≤ GI50 < 500 nM)
11,"C=CC(=O)Nc1cc(Nc2cc(N3OCC[C@@H]3c3ccc(F)c(Cl)c3)ncn2)c(OC)cc1N1C[C@@H]2CCN(C)[C@@H]2C1 [compound 316, N-(5-((6-((R)-3-(3-chloro-4-fluorophenyl)isoxazolidine-2-yl)pyrimidine-4-yl)amino)-4-methoxy-2-((3aS,6aS)-1-methylhexahydropyrrolo [3,4-b]pyrrole-5(1H)-yl)phenyl)acrylamide]",A (GI50 < 50 nM)
12,"C=CC(=O)Nc1cc(Nc2cc(N3OCC[C@@H]3c3ccc(F)c(Cl)c3F)ncn2)c(OC)cc1N1C[C@H](C)O[C@@H](C)C1 [compound 658, N-(5-((6-((R)-3-(3-chloro-2,4-difluorophenyl)isoxazolidine-2-yl)pyrimidine-4-yl)amino)-2-((2S,6S)-2,6-dimethylmorpholino)-4-methoxyphenyl) acrylamide]",B (50 nM ≤ GI50 < 500 nM)
13,"C=CC(=O)Nc1cc(Nc2cc(N3OCC[C@@H]3Cc3cccc(Cl)c3C)ncn2)c(OC)cc1N1CCC(N2CCN(C3CC3)CC2)CC1 [compound 1025, N-(5-((6-((S)-3-(3-chloro-2-methylbenzyl)isoxazolidine-2-yl)pyrimidine-4-yl)amino)-2-(4-(4-cyclopropylpiperazine-1-yl)piperidine-1-yl)-4-methoxyphenyl) acrylamide]",A (GI50 < 50 nM)
14,"C=CC(=O)Nc1cc(Nc2cc(N3OCC[C@@H]3c3c(F)ccc(F)c3F)ncn2)c(OC)cc1N1CCC(N2C[C@@H](C)O[C@@H](C)C2)CC1 [compound 644, N-(2-(4-((2S,6R)-2,6-dimethylmorpholino)piperidine-1-yl)-4-methoxy-5-((6-((R)-3-(2,3,6-trifluorophenyl)isoxazolidine-2-yl)pyrimidine-4-yl)amino)phenyl)acrylamide]",A (GI50 < 50 nM)
15,"C=CC(=O)Nc1cc(Nc2cc(N3OCC[C@@H]3c3cccc(Cl)c3)ncn2)c(OC)cc1N1CCOCC1 [compound 467, N-(5-((6-((R)-3-(3-chlorophenyl)isoxazolidine-2-yl)pyrimidine-4-yl)amino)-4-methoxy-2-morpholinophenyl) acrylamide]",A (GI50 < 50 nM)
16,C=CC(=O)Nc1cc(Nc2cc(N3OCC[C@@H]3c3ccccc3)ncn2)c(OC)cc1N1CCN(C2COC2)CC1 [Example 18],A (GI50 < 50 nM)
17,"C=CC(=O)Nc1cc(Nc2cc(N3OCC[C@@H]3c3c(F)ccc(F)c3F)ncn2)c(OC)cc1N1CCC(N2CCOCC2)CC1 [compound 632, N-(4-methoxy-2-(4-morpholinopiperidine-1-yl)-5-((6-((R)-3-(2,3,6-trifluorophenyl)isoxazolidine-2-yl)pyrimidine-4-yl)amino)phenyl)acrylamide]",A (GI50 < 50 nM)
18,"C=CC(=O)Nc1cc(Nc2cc(N3OCC[C@@H]3c3cccc(C#N)c3)ncn2)c(OC)cc1N1CCN(C2COC2)CC1 [compound 391, N-(5-((6-((R)-3-(3-cyanophenyl)isoxazolidine-2-yl)pyrimidine-4-yl)amino)-4-methoxy-2-(4-(oxetane-3-yl)piperazine-1-yl)phenyl) acrylamide]",B (50 nM ≤ GI50 < 500 nM)
19,"C=CC(=O)Nc1cc(Nc2cc(N3OCC[C@@H]3c3ccc(F)cc3F)ncn2)c(OC)cc1N1CC[C@@H](N(C)C)C1 [compound 376, N-(5-((6-((R)-3-(2,4-difluorophenyl)isoxazolidine-2-yl)pyrimidine-4-yl)amino)-2-((R)-3-(dimethylamino)pyrolidine-1-yl)-4-methoxyphenyl) acrylamide]",A (GI50 < 50 nM)
20,"C=CC(=O)Nc1cc(Nc2cc(N3OCC[C@H]3c3c(F)ccc(F)c3F)ncn2)c(OC)cc1N1CCC(N2CCN(C3CC3)CC2)CC1 [compound 937, N-(2-(4-(4-cyclopropylpiperazine-1-yl)piperidine-1-yl)-4-methoxy-5-((6-((S)-3-(2,3,6-trifluorophenyl)isoxazolidine-2-yl)pyrimidine-4-yl)amino)phenyl)acrylamide]",B (50 nM ≤ GI50 < 500 nM)
21,"COc1cc(N2CCOCC2)c(NC(=O)/C=C/CN(C)C)cc1Nc1cc(N2OCC[C@@H]2c2cc(F)cc(F)c2)ncn1 [compound 397, N-(5-((6-((R)-3-(3,5-difluorophenyl)isoxazolidine-2-yl)pyrimidine-4-yl)amino)-4-methoxy-2-morpholinophenyl)-(E)-4-(dimethylamino)but-2-enamide]",A (GI50 < 50 nM)
22,"C=CC(=O)Nc1cc(Nc2cc(N3OCC[C@@H]3Cc3cccc(Cl)c3F)ncn2)c(OC)cc1N1CCC(N2CCN(C3CC3)[C@H](C)C2)CC1 [compound 1019, N-(5-((6-((S)-3-(3-chloro-2-fluorobenzyl)isoxazolidine-2-yl)pyrimidine-4-yl)amino)-2-(4-((R)-4-cyclopropyl-3-methylpiperazine-1-yl)piperidine-1-yl)-4-methoxyphenyl) acrylamide]",A (GI50 < 50 nM)
